# Data: publication PMC12267056 (Nature, 2025)
# Where “and” joins values, the source holds several entries; their conditions need not be identical. Equal values may be shown once. Read-outs that look alike come from different tables or passages of the source.
# Tests used:
# [1] = target: T1, human SLC35B1 (wild type) (Homo sapiens, UniProt P78383); assay: IC50 for competitive inhibition of [3H]ADP uptake in proteoliposomes; assay type: biochemical; set-up: made in house; host or cells: Saccharomyces cerevisiae FGY217
# T1 sequence (P78383 1-322): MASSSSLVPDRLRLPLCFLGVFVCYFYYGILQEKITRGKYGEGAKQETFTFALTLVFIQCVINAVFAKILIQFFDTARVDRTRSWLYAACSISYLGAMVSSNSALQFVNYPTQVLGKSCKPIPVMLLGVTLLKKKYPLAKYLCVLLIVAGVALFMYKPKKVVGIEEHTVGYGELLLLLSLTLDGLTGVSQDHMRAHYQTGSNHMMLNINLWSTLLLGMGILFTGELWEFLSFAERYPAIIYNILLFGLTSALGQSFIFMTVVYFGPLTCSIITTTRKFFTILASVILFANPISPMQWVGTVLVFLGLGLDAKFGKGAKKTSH
# [2] = target: T1, human SLC35B1 (wild type); assay: STD NMR of nucleotide interaction with SLC35B1 proteoliposomes; assay type: binding; set-up: made in house; host or cells: Saccharomyces cerevisiae FGY217
# [3] = target: T2, SLC35B1-Fv-MBP fusion protein (Homo sapiens, UniProt P78383); assay: IC50 for ADP competition of [3H]-ADP/ATP transport, SLC35B1-Fv-MBP; assay type: biochemical; details: read-out: IC50, external ADP competition of [3H]-ADP/ATP transport; SLC35B1-Fv-MBP fusion protein in proteoliposomes
# T2 construct: TEV site (C); GFP (C); His8 (C); made in house; host or cells: SLC35B1: Saccharomyces cerevisiae FGY217; Fv–MBP: Brevibacillus choshinensis (secreted)
# T2 sequence (P78383 1-322): T1 sequence (P78383 1-322)
# [4] = target: T1, human SLC35B1 (wild type); assay type: binding; set-up: made in house; host or cells: Saccharomyces cerevisiae FGY217; details: for GFP fluorescence after heating (source data Fig 1B): 1 mM substrate
# [5] = target: T1, human SLC35B1 (wild type); assay: Competitive uptake assay: [3H]ADP uptake with 1 mM cold nucleotide; assay type: biochemical; set-up: made in house; host or cells: Saccharomyces cerevisiae FGY217; details: competitor 1mM; sheet ED 6F; SLC35B1 proteoliposomes
# [6] = target: T1, human SLC35B1 (wild type); assay: [3H]ADP/ATP exchange kinetics (Michaelis–Menten); assay type: biochemical; set-up: made in house; host or cells: Saccharomyces cerevisiae FGY217
smiles,measurement,setting,value
Nc1ncnc2c1ncn2[C@@H]1O[C@H](COP(=O)(O)OP(=O)(O)O)[C@@H](O)[C@H]1O [ADP],Normalized [3H]-ADP uptake activity (IC50 curve),[1]; external cold nucleotide 0.01 uM,93.6927 and 106.307 and 98.0637
same,Normalized [3H]-ADP uptake activity (IC50 curve),[1]; external cold nucleotide 0.1 uM,87.3862 and 98.7018 and 89.3272
same,Normalized [3H]-ADP uptake activity (IC50 curve),[1]; external cold nucleotide 1 uM,48.8239 and 76.0895 and 44.7547
same,Normalized [3H]-ADP uptake activity (IC50 curve),[1]; external cold nucleotide 10 uM,22.7468 and 19.9682 and 21.5397
same,Normalized [3H]-ADP uptake activity (IC50 curve),[1]; external cold nucleotide 100 uM,8.173 and 6.95 and 8.424
same,IC50,[1]; wild-type SLC35B1 proteoliposomes,1.6 µM
same,1H integral (off-resonance spectrum),[2],1.99E+11
same,STD integral,[2],3.67E+10
same,IC50,[3],2.77 ± 0.41 µM
same,ΔTm (average melting temperature increase),"[4]; 1 mM nucleotide, purified wild-type SLC35B1–GFP",5.3 °C
same,"ΔTm, individual titrations (source data)","[4]; 1 mM nucleotide, wild-type SLC35B1–GFP",5.49 and 5.09 and 5.45
same,GFP fluorescence after heating (source data Fig 1B),[4]; temperature 4,98.7528 and 95.6204 and 104.931 and 101.189 and 101.102 and 98.4048
same,GFP fluorescence after heating (source data Fig 1B),[4]; temperature 10,87.2672 and 91.8788 and 95.3593 and 107.889 and 92.923 and 94.9243
same,GFP fluorescence after heating (source data Fig 1B),[4]; temperature 20,90.7477 and 91.6178 and 91.1827 and 94.7503 and 88.9204 and 86.6668
same,GFP fluorescence after heating (source data Fig 1B),[4]; temperature 30,85.9881 and 86.4928 and 88.9204 and 91.0957 and 89.5295 and 91.7048
same,GFP fluorescence after heating (source data Fig 1B),[4]; temperature 40,42.8735 and 42.656 and 39.9412 and 40.3066 and 43.7088 and 44.6834
same,GFP fluorescence after heating (source data Fig 1B),[4]; temperature 50,5.748 and 5.6183 and 5.416 and 5.384 and 5.915 and 6.0377
same,GFP fluorescence after heating (source data Fig 1B),[4]; temperature 60,2.3127 and 2.334 and 2.351 and 2.357 and 2.381 and 2.422
same,GFP fluorescence after heating (source data Fig 1B),[4]; temperature 70,0.4378 and 0.4464 and 0.4526 and 0.4781 and 0.469 and 0.4867
same,[3H]ADP uptake in the presence of cold competitor nucleotide (individual replicates; no-competitor control about 100),[5],-1.767 and -1.033 and 2.879 and 5.424 and 4.368 and 4.176
same,ADP/ATP exchange initial rate,[6]; [ADP] 0.2,18.1311 nmols / min* mg and 18.3179 nmols / min* mg and 18.8253 nmols / min* mg
same,ADP/ATP exchange initial rate,[6]; [ADP] 0.5,28.9111 nmols / min* mg and 29.9816 nmols / min* mg and 28.6714 nmols / min* mg
same,ADP/ATP exchange initial rate,[6]; [ADP] 1,44.617 nmols / min* mg and 42.2865 nmols / min* mg and 44.5891 nmols / min* mg
same,ADP/ATP exchange initial rate,[6]; [ADP] 5,114.496 nmols / min* mg and 126.14 nmols / min* mg and 112.107 nmols / min* mg
same,ADP/ATP exchange initial rate,[6]; [ADP] 10,156.88 nmols / min* mg and 168.644 nmols / min* mg and 150.078 nmols / min* mg
same,ADP/ATP exchange initial rate,[6]; [ADP] 20,155.074 nmols / min* mg and 183.464 nmols / min* mg and 182.884 nmols / min* mg
